Molecules are shown by their SMILES.

The data set is described as follows: gradient 5% acetonitrile 3 min, to 50% in 2 min, to 85% in 15 min, held 3 min, 100 µL/min. As to conditions: column: Zorbax Extend-C18 2.1 x 50 mm; eluents: water / acetonitrile, 0.1% formic acid. Summed up:
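Standards, all pure, were combined into mixtures of ~100 molecules and run at 100 μL/min on a Zorbax Extend-C18 column (2.1 × 50 mm, 1.8 μm) with water and acetonitrile, each containing 0.1% formic acid. A coupled quadrupole time-of-flight mass spectrometer operated in positive and negative ionization mode. Retention time values come from computationally picked adduct peaks, each inspected manually.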
Turning to `COc1cc(OC)c(NC(=O)NC2CCN(c3ccc(F)c(C)c3)C2=O)cc1Cl` (configuration not stated), the RP-LC retention time was 888 s.
The value for `Cc1cnc(C(=O)NC2C[C@H]3CC[C@@H](C2)N3C(=O)c2ccc(C)s2)cn1` (some centres not stated) was 683 s; that for `CCCOc1ccc(CNC(=O)C2CCc3nc(N4CCCCC4)ncc3C2)cc1` (configuration not stated) was 850 s.
The value for `Cc1c(-c2noc(-c3ccccc3F)n2)nnn1Cc1ccccc1` was 1030 s.
The same measure for `CCCNC(=O)Nc1cc2c(cc1N1CCC(C(=O)OCC)CC1)n(C)c(=O)n2C`: 716 s.
For `O=C(Nc1c(-c2ccccc2)nc2ccccn12)c1ccco1`, the RP-LC retention time worked out at 598 s.
The value for `CCCn1c(=O)c(-c2ccc(C(=O)NCCCN3CCCC3)cc2)nc2ccccc21` was 653 s; that for `CCOC(=O)C1=C(CN2CCN(c3ncccn3)CC2)NC(=O)NC1c1ccc(Cl)cc1` (configuration not stated) was 669 s; that for `CCCN1C(=O)COc2ccc(-c3csc(NC(=O)c4ccccc4Cl)n3)cc21` was 1030 s.
The value for `Cc1ccccc1CNC(=O)C1CCN(CCc2cn(C)c3ncccc23)CC1` was 608 s.
The value for `CCN(C(=O)c1ccc2c(c1)OCO2)c1nc(-c2ccccc2)cs1` was 1200 s.
For the molecule `O=C(CN1C(=O)CCC1=O)Nc1ncc(S(=O)(=O)c2ccc([N+](=O)[O-])cc2)s1`, the RP-LC retention time came to 706 s.
The value for `CCn1cc(-c2nc(CC(=O)N3CCN(c4ccc(F)cc4)CC3)cs2)c2cccnc21` was 921 s.
On to `CC(=O)N1CCC(C(=O)NCc2nn(Cc3ccccc3)c3ccccc23)CC1`, for which the RP-LC retention time worked out at 728 s.
The same measure for `CN(C)c1ccc2c(c1)CN(Cc1ccccc1C#N)CCO2`: 592 s; for `CCCc1noc(-c2ccnc(-n3cnc(C(=O)NC4CCCCC4)c3)c2)n1`: 973 s.
The molecule `CCn1nccc1C(=O)N1CCN(C(=O)N2C[C@H]3C[C@H](C2)[C@H]2CCCC(=O)N2C3)CC1` returned an RP-LC retention time of 609 s.
The same measure for `O=C(NCc1cccnc1)C1c2ccccc2C(=O)N(C2CCCC2)C12CCCCC2` (configuration not stated): 677 s.
The value for `COc1ccc(S(=O)(=O)N2CCC3(CC2)CC(C)(O)CCO3)cc1OC` (configuration not stated) was 612 s; that for `CCOc1ccccc1NC(=O)N1CCC(CN2CCC(C)CC2)CC1` was 582 s; that for `CCOc1ccc(NC(=O)Cn2c(=O)n(-c3ccccc3)c(=O)c3sc(SCC)nc32)cc1` was 981 s.
The value for `CNC(=O)c1ccsc1NC(=O)c1cccc(C(F)(F)F)c1` was 1160 s; that for `COc1cc(CN2CC[C@@H]3CN(S(C)(=O)=O)[C@@H]3C2)ccc1F` was 598 s.
In turn, `Cc1ccc(-c2csc(-c3cccn3CC(=O)NCC3CCCO3)n2)cc1` (configuration not stated) came in with an RP-LC retention time of 1020 s.
The value for `COc1ccc(-c2ccnc3nc(CC(C)C)nn23)c(F)c1` was 904 s; that for `CCCC(=O)NCc1nc(-c2ccccc2Cl)no1` was 755 s; that for `CCn1cnc2ccc(-c3noc(-c4ccccc4OC)n3)cc21` was 742 s.

The values are drawn from the METLIN SMRT retention time set (Domingo-Almenara et al. 2019).
